How the values were obtained:
[1] = tested on: patients with schizophrenia; experiment: CATIE trial side effects (discontinued for safety concerns, COMPEFF score 5) by HPCAL1/SV2C genotype; assay type: in vivo, human; settings: for OR vs. Low / OR vs. baseline: side effects; for OR vs. Low: vs low scoring genotype(s); for OR vs. baseline: vs sample not segmented by genotype
Experimental: (§1) The Clinical Antipsychotic Trials of Intervention Effectiveness (CATIE), a large federally funded clinical trial designed to assess the efficacy of antipsychotics in a real world setting, is a valuable resource for determining the role of genes in drug response (Stroup et al., Schizophr. Bull. 29:15-31 (2003); Lieberman et al., N. Engl. J. […] As part of the CATIE trial SNP genotyping was performed for roughly half of the trial participants (Sullivan et al., Mol. Psychiatry 13:570-584 (2008)). […] The design of the CATIE study has been described in detail by others (Stroup et al., Schizophr. Bull. 29:15-31 (2003); Lieberman et al., N. Engl. J. […] A total of 738 subjects consented to provide DNA for genetic study. […] Genotype and phenotype data for the CATIE trial were made available to qualified researchers through The NIMH Center for Collaborative Genetic Studies on Mental Disorders. For reduction to practice, we evaluated data for 417 patients with schizophrenia self reported as having exclusively European ancestry. […] Golden Helix, Bozeman, Mont.). To generate a P value, HelixTree calculates analysis of deviance (a likelihood ratio statistic) that compares the observed contingency table vs. an expected contingency table created with all the possible variations of the genetic model. […] The standard FDA registration trial definition of response of >20% decrease in Positive and Negative Syndrome Scale (PANSS Total Score) was used to assign subjects to a response category. […] Bull. 29:73-80 (2003)). […] The tables report odds ratios relative to the baseline values (sample not segmented by genotype) and relative to values for the low scoring, mutually exclusive genotype(s).

[2] = tested on: patients with schizophrenia; experiment: CATIE trial drug response (>20% decrease in PANSS Total Score) by HPCAL1/SV2C genotype; assay type: in vivo, human; settings: for Response frequency: CATIE Phase 1; for OR vs. Low / OR vs. baseline: response; for OR vs. Low: vs low scoring genotype(s); for OR vs. baseline: vs sample not segmented by genotype
Experimental: as §1

[3] = HPCAL1 rs11679891 genotype A/C, C/C (C)
[4] = HPCAL1 rs13033617 genotype C/C (C)
[5] = SV2C rs6453205 genotype C/C (C)
[6] = HPCAL1 rs7571627 genotype T/T (T)
[7] = SV2C rs12522597 genotype G/G, A/G (G)
[8] = HPCAL1 rs11679891 genotype C/C (C)
[9] = SV2C rs4610441 genotype C/C (C)
[10] = SV2C rs10064352 genotype T/T (T)
[11] = SV2C rs10474464 genotype C/C (C)
[12] = SV2C rs12152728 genotype C/C (C)

**Q.** `OCCN1CCN(CCCN2c3ccccc3Sc3ccc(Cl)cc32)CC1` [perphenazine] was tested. Which “Frequency Study ending side effects” value [1, 3] did it give?
**A.** 0.19

**Q.** And the “OR vs. Low” value [1, 3]?
**A.** >10

**Q.** What about the OR vs. baseline [1, 3] of the same molecule?
**A.** 1.44

**Q.** What about the “Frequency Study ending side effects” value [1, 4] of the same molecule?
**A.** 0.27

**Q.** And the “OR vs. Low” value [1, 4]?
**A.** 3.74

**Q.** And the OR vs. baseline [1, 4]?
**A.** 2.27

**Q.** What about the Response frequency [2, 5] of the same molecule?
**A.** 0.7

**Q.** And the “OR vs. Low” value [2, 5]?
**A.** 3.36

**Q.** And the OR vs. baseline [2, 5]?
**A.** 2.43

**Q.** Which results are given for `O=C1Cc2cc(CCN3CCN(c4nsc5ccccc45)CC3)c(Cl)cc2N1` [ziprasidone]?
**A.** Frequency Study ending side effects [1, 6]: 0.33; OR vs. Low [1, 6]: 4.98; OR vs. baseline [1, 6]: 1.56; Frequency Study ending side effects ([1]; SV2C rs246812 genotype A/A (A)): 0.5; OR vs. Low ([1]; SV2C rs246812 genotype A/A (A)): 6.14; OR vs. baseline ([1]; SV2C rs246812 genotype A/A (A)): 3.17; Response frequency [2, 7]: 0.55; OR vs. Low [2, 7]: 9.89; OR vs. baseline [2, 7]: 1.49

**Q.** Which Response frequency ([2]; SV2C rs4704297 genotype C/C, C/G (C)) does the source give for `Cc1nc2n(c(=O)c1CCN1CCC(c3noc4cc(F)ccc34)CC1)CCCC2` [risperidone] here?
**A.** 0.45

**Q.** For `OCCOCCN1CCN(C2=Nc3ccccc3Sc3ccccc32)CC1` [quetiapine], which Response frequency [2, 8] is on record?
**A.** 0.6

**Q.** What about the OR vs. baseline [2, 8] of the same molecule?
**A.** 3.05

**Q.** And the Response frequency [2, 9]?
**A.** 0.6

**Q.** And the OR vs. baseline [2, 9]?
**A.** 3.05

**Q.** And the Response frequency [2, 10]?
**A.** 0.6

**Q.** What about the “OR vs. Low” value [2, 10] of the same molecule?
**A.** 3.67

**Q.** And the OR vs. baseline [2, 10]?
**A.** 3.05

**Q.** And the Response frequency [2, 11]?
**A.** 0.6

**Q.** And the OR vs. baseline [2, 11]?
**A.** 3.05

**Q.** What about the Response frequency [2, 12] of the same molecule?
**A.** 0.5

**Q.** And the “OR vs. Low” value [2, 12]?
**A.** 2.70

**Q.** What about the OR vs. baseline [2, 12] of the same molecule?
**A.** 2.03
